# According to ChEMBL document CHEMBL4699634, “Series of Novel and Highly Potent Cyclic Peptide PCSK9 Inhibitors Derived from an mRNA Display Screen and Optimized via Structure-Based Design” (J Med Chem, 2020):
# Numbered stars: 1 amine (or outer) side, 2 acyl side, 3 side chain; on linkers, the order of the positions; unused ones are H or OH. Bridge positions count the residues as written; N and C are the ends. Square brackets hold non-standard residues; d marks the D form. Peptide text beside a SMILES is read from it. ξ: configuration not given here. Trp(5-F) = N[C@@H](Cc1c[nH]c2ccc(F)cc12)C(=O)O; Trp(7-aza) = N[C@@H](Cc1c[nH]c2ncccc12)C(=O)O; NMePhe(4-F) = CN[C@@H](Cc1ccc(F)cc1)C(=O)O; Bip = N[C@@H](Cc1ccc(-c2ccccc2)cc1)C(=O)O; NMeW = CN[C@@H](Cc1c[nH]c2ccccc12)C(=O)O; mXylylene = c1cc(C[*:1])cc(C[*:2])c1; Tle = CC(C)(C)[C@H](N)C(=O)O; Nva = CCC[C@H](N)C(=O)O; ξNle = CCCCC(N)C(=O)O; Mpa = O=C(O)CCS
# Target: PCSK9/LDLR (Homo sapiens, UniProt Q8NBP7)
# Sequence (Q8NBP7 31-152 limits assumed): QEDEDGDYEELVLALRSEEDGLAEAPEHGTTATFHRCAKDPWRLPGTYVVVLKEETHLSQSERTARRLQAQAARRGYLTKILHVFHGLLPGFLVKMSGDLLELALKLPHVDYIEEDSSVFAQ
# Sequence (Q8NBP7 153-692 limits assumed): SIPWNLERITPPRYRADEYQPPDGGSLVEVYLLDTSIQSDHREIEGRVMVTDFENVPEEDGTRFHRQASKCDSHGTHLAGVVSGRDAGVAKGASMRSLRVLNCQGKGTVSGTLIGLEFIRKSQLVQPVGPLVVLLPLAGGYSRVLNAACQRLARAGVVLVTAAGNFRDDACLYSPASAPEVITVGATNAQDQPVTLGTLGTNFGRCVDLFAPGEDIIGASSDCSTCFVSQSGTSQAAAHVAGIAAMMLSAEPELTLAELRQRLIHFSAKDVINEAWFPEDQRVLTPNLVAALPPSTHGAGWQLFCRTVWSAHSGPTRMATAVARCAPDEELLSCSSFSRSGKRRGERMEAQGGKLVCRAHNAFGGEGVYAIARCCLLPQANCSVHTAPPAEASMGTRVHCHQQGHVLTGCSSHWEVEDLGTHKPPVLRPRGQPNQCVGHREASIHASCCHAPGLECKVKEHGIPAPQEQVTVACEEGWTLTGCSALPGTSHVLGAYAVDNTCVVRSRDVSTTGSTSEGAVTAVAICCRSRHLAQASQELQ
# Sequence (P01130 22-860 partner limits assumed): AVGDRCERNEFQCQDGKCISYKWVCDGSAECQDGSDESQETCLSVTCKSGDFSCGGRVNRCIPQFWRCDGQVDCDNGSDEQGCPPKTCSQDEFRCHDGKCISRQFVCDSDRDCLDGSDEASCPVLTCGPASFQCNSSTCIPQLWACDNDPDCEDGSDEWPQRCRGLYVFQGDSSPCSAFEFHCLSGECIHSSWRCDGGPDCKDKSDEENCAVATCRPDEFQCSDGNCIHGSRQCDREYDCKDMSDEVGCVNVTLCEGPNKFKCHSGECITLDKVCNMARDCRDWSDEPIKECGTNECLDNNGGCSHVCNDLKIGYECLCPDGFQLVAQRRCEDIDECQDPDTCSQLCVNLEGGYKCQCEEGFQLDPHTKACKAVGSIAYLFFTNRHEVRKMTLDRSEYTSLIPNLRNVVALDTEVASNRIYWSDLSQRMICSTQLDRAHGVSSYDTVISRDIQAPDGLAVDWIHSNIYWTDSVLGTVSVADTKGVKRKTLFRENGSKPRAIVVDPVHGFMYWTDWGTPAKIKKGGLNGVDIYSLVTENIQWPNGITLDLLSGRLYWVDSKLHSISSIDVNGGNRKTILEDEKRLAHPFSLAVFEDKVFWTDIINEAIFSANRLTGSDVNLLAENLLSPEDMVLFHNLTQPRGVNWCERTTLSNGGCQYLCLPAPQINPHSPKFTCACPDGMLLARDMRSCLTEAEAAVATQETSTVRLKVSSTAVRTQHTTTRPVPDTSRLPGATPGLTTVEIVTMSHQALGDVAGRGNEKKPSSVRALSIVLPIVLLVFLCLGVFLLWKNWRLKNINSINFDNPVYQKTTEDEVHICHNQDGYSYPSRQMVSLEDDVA
# Assay: Inhibition of avi-tagged-biotinylated human PCSK9 interaction with His-tagged human LDLR EGFa domain by LANCE Ulight Streptavidin based TR-FRET assay
# Format: protein assay
row,Ki [nM],Structure (SMILES)
1,2010,NCCCC[C@@H]1NC(=O)CCSCc2cccc(c2)CSC[C@H](C(N)=O)NC(=O)[C@@H]2CCCN2C(=O)[C@H](Cc2ccc(O)cc2)NC(=O)[C@H](Cc2cnc[nH]2)NC(=O)[C@H](CC(=O)O)NC(=O)[C@H](Cc2c[nH]c3ccc(F)cc23)NC(=O)[C@H](Cc2c[nH]c3ccc(F)cc23)NC(=O)CNC1=O
2,26.9,C[C@H](O)[C@H]1NC(=O)[C@H](CCCCN)NC(=O)CCSCc2cccc(c2)CSCCNC(=O)[C@]2(C)CCCN2C(=O)[C@H](Cc2ccc(O)cc2)NC(=O)[C@H](Cc2cnc[nH]2)NC(=O)[C@H](CC(=O)O)NC(=O)[C@H](Cc2c[nH]c3ccc(F)cc23)NC(=O)[C@H](Cc2c[nH]c3ccc(F)cc23)NC1=O
3,> 50000,NCCCC[C@@H]1NC(=O)CCSCc2cccc(c2)CSC[C@@H](C(N)=O)NC(=O)[C@H]2CCCN2C(=O)[C@H](Cc2ccc(O)cc2)NC(=O)[C@H](Cc2cnc[nH]2)NC(=O)[C@H](CC(=O)O)NC(=O)[C@H](Cc2c[nH]c3ccc(F)cc23)NC(=O)[C@H](Cc2c[nH]c3ccc(F)cc23)NC(=O)CNC1=O
4,> 48000,NCCCC[C@@H]1NC(=O)CCSCc2cccc(c2)CSC[C@@H](C(N)=O)NC(=O)[C@@H]2CCCN2C(=O)[C@@H](Cc2ccc(O)cc2)NC(=O)[C@H](Cc2cnc[nH]2)NC(=O)[C@H](CC(=O)O)NC(=O)[C@H](Cc2c[nH]c3ccc(F)cc23)NC(=O)[C@H](Cc2c[nH]c3ccc(F)cc23)NC(=O)CNC1=O
5,> 48000,NCCCC[C@@H]1NC(=O)CCSCc2cccc(c2)CSC[C@@H](C(N)=O)NC(=O)[C@@H]2CCCN2C(=O)[C@H](Cc2ccc(O)cc2)NC(=O)[C@H](Cc2cnc[nH]2)NC(=O)[C@H](CC(=O)O)NC(=O)[C@@H](Cc2c[nH]c3ccccc23)NC(=O)[C@H](Cc2c[nH]c3ccc(F)cc23)NC(=O)CNC1=O
6,16200,NCCCC[C@H]1NC(=O)CCSCc2cccc(c2)CSC[C@@H](C(N)=O)NC(=O)[C@@H]2CCCN2C(=O)[C@H](Cc2ccc(O)cc2)NC(=O)[C@H](Cc2cnc[nH]2)NC(=O)[C@H](CC(=O)O)NC(=O)[C@H](Cc2c[nH]c3ccc(F)cc23)NC(=O)[C@H](Cc2c[nH]c3ccc(F)cc23)NC(=O)CNC1=O
7,> 48000,NCCCC[C@@H]1NC(=O)CCSCc2cccc(c2)CSC[C@@H](C(N)=O)NC(=O)[C@@H]2CCCN2C(=O)[C@H](Cc2ccc(O)cc2)NC(=O)[C@@H](Cc2cnc[nH]2)NC(=O)[C@H](CC(=O)O)NC(=O)[C@H](Cc2c[nH]c3ccc(F)cc23)NC(=O)[C@H](Cc2c[nH]c3ccc(F)cc23)NC(=O)CNC1=O
8,> 48000,NCCCC[C@@H]1NC(=O)CCSCc2cccc(c2)CSC[C@@H](C(N)=O)NC(=O)[C@@H]2CCCN2C(=O)[C@H](Cc2ccc(O)cc2)NC(=O)[C@H](Cc2cnc[nH]2)NC(=O)[C@H](CC(=O)O)NC(=O)[C@H](Cc2c[nH]c3ccc(F)cc23)NC(=O)[C@@H](Cc2c[nH]c3ccccc23)NC(=O)CNC1=O
9,> 48000,NCCCC[C@@H]1NC(=O)CCSCc2cccc(c2)CSC[C@@H](C(N)=O)NC(=O)[C@@H]2CCCN2C(=O)[C@H](Cc2ccc(O)cc2)NC(=O)[C@H](Cc2cnc[nH]2)NC(=O)[C@@H](CC(=O)O)NC(=O)[C@H](Cc2c[nH]c3ccc(F)cc23)NC(=O)[C@H](Cc2c[nH]c3ccc(F)cc23)NC(=O)CNC1=O
10,48.1,C[C@@H]1NC(=O)CCSCc2cccc(c2)CSCCNC(=O)[C@]2(C)CCCN2C(=O)[C@H](Cc2ccc(O)cc2)NC(=O)[C@H](Cc2cnc[nH]2)NC(=O)[C@H](CC(=O)O)NC(=O)[C@H](Cc2c[nH]c3ccc(F)cc23)NC(=O)[C@H](Cc2c[nH]c3ccc(F)cc23)NC(=O)[C@@H](CCCCN)NC1=O
11,103,CC(=O)N[C@H]1CSCc2cccc(c2)CSC[C@@H](C(N)=O)NC(=O)[C@@H]2CCCN2C(=O)[C@H](Cc2ccc(O)cc2)NC(=O)[C@H](Cc2c[nH]cn2)NC(=O)[C@H](CC(=O)O)NC(=O)[C@H](Cc2c[nH]c3ccc(F)cc23)NC(=O)[C@H](Cc2c[nH]c3ccccc23)NC(=O)CNC(=O)[C@H](CCCCN)NC1=O (Ac-CKGW[Trp(5-F)]DHYPC-NH2; linker 1-10 via mXylylene)
12,1070,CC(=O)N[C@H]1CSCc2cccc(c2)CSC[C@@H](C(N)=O)NC(=O)[C@@H]2CCCN2C(=O)[C@H](Cc2ccc(O)cc2)NC(=O)[C@H](Cc2cnc[nH]2)NC(=O)[C@H](CC(=O)O)NC(=O)[C@H](Cc2c[nH]c3ccccc23)NC(=O)[C@H](Cc2c[nH]c3ccc(F)cc23)NC(=O)CNC(=O)[C@H](CCCCN)NC1=O (Ac-CKG[Trp(5-F)]WDHYPC-NH2; linker 1-10 via mXylylene)
13,47.1,CC(=O)N[C@H]1CSCc2cccc(c2)CSC[C@@H](C(N)=O)NC(=O)[C@@H]2CCCN2C(=O)[C@H](Cc2ccc(O)cc2)NC(=O)[C@H](Cc2cnc[nH]2)NC(=O)[C@H](CC(=O)O)NC(=O)[C@H](Cc2c[nH]c3ccc(F)cc23)NC(=O)[C@H](Cc2c[nH]c3ccc(F)cc23)NC(=O)CNC(=O)[C@H](CCCCN)NC1=O (Ac-CKG[Trp(5-F)][Trp(5-F)]DHYPC-NH2; linker 1-10 via mXylylene)
14,956,CC(=O)N[C@@H](Cc1cnc[nH]1)C(=O)N(C)[C@@H](Cc1ccc(F)cc1)C(=O)N[C@H]1CSCc2cccc(c2)CSC[C@@H](C(N)=O)NC(=O)[C@@H]2CCCN2C(=O)[C@H](Cc2ccc(O)cc2)NC(=O)[C@H](Cc2cnc[nH]2)NC(=O)[C@H](CC(=O)O)NC(=O)[C@H](Cc2c[nH]c3ccc(F)cc23)NC(=O)[C@H](Cc2c[nH]c3ccc(F)cc23)NC(=O)CNC(=O)[C@H](CCCCN)NC1=O (Ac-H[NMePhe(4-F)]CKG[Trp(5-F)][Trp(5-F)]DHYPC-NH2; linker 3-12 via mXylylene)
15,134,CCCCC(NC(C)=O)C(=O)N[C@H]1CSCc2cccc(c2)CSC[C@@H](C(N)=O)NC(=O)[C@H]([C@@H](C)O)NC(=O)[C@H](CCC)NC(=O)[C@H](Cc2ccc(O)cc2)NC(=O)[C@H](CCC(=O)O)NC(=O)[C@H](CCC)NC(=O)[C@H](Cc2c[nH]c3ncccc23)NC(=O)[C@H]([C@@H](C)O)NC(=O)[C@H](Cc2cnc[nH]2)NC(=O)[C@H](Cc2ccc(O)cc2)NC(=O)[C@H](C(C)(C)C)NC1=O (some centres undefined) (Ac-[ξNle]C[Tle]YHT[Trp(7-aza)][Nva]EY[Nva]TC-NH2; linker 2-13 via mXylylene)
16,> 48000,C[C@@H]1NC(=O)[C@H](CCCCN)NC(=O)CCSCc2cccc(c2)CSC[C@@H](C(N)=O)NC(=O)[C@@H]2CCCN2C(=O)[C@H](Cc2ccc(O)cc2)NC(=O)[C@H](Cc2cnc[nH]2)NC(=O)[C@H](CC(=O)O)NC(=O)[C@H](Cc2c[nH]c3ccc(F)cc23)NC(=O)[C@H](Cc2c[nH]c3ccc(F)cc23)NC1=O ([Mpa]KA[Trp(5-F)][Trp(5-F)]DHYPC-NH2; linker 1-10 via mXylylene)
17,656,C[C@@H]1NC(=O)CNC(=O)[C@H](CCCCN)NC(=O)CCSCc2cccc(c2)CSC[C@@H](C(N)=O)NC(=O)[C@@H]2CCCN2C(=O)[C@H](Cc2ccc(O)cc2)NC(=O)[C@H](Cc2cnc[nH]2)NC(=O)[C@H](CC(=O)O)NC(=O)[C@H](Cc2c[nH]c3ccc(F)cc23)NC1=O ([Mpa]KGA[Trp(5-F)]DHYPC-NH2; linker 1-10 via mXylylene)
18,29300,NCCCC[C@@H]1NC(=O)CCSCc2cccc(c2)CSC[C@@H](C(N)=O)NC(=O)[C@@H]2CCCN2C(=O)[C@H](Cc2ccc(O)cc2)NC(=O)[C@H](Cc2c[nH]cn2)NC(=O)[C@H](CC(=O)O)NC(=O)[C@H](Cc2c[nH]c3ccc(F)cc23)NC(=O)[C@H](Cc2ccc(-c3ccccc3)cc2)NC(=O)CNC1=O ([Mpa]KG[Bip][Trp(5-F)]DHYPC-NH2; linker 1-10 via mXylylene)
19,> 48000,CN1C(=O)CNC(=O)[C@H](CCCCN)NC(=O)CCSCc2cccc(c2)CSC[C@@H](C(N)=O)NC(=O)[C@@H]2CCCN2C(=O)[C@H](Cc2ccc(O)cc2)NC(=O)[C@H](Cc2cnc[nH]2)NC(=O)[C@H](CC(=O)O)NC(=O)[C@H](Cc2c[nH]c3ccc(F)cc23)NC(=O)[C@@H]1Cc1c[nH]c2ccccc12 ([Mpa]KG[NMeW][Trp(5-F)]DHYPC-NH2; linker 1-10 via mXylylene)
20,> 48000,C[C@@H]1NC(=O)[C@H](Cc2c[nH]c3ccc(F)cc23)NC(=O)CNC(=O)[C@H](CCCCN)NC(=O)CCSCc2cccc(c2)CSC[C@@H](C(N)=O)NC(=O)[C@@H]2CCCN2C(=O)[C@H](Cc2ccc(O)cc2)NC(=O)[C@H](Cc2cnc[nH]2)NC(=O)[C@H](CC(=O)O)NC1=O ([Mpa]KG[Trp(5-F)]ADHYPC-NH2; linker 1-10 via mXylylene)
21,> 48000,CN1C(=O)[C@H](Cc2c[nH]c3ccc(F)cc23)NC(=O)CNC(=O)[C@H](CCCCN)NC(=O)CCSCc2cccc(c2)CSC[C@@H](C(N)=O)NC(=O)[C@@H]2CCCN2C(=O)[C@H](Cc2ccc(O)cc2)NC(=O)[C@H](Cc2cnc[nH]2)NC(=O)[C@H](CC(=O)O)NC(=O)[C@@H]1Cc1c[nH]c2ccccc12 ([Mpa]KG[Trp(5-F)][NMeW]DHYPC-NH2; linker 1-10 via mXylylene)
22,427,C[C@@H]1NC(=O)[C@H](Cc2c[nH]c3ccc(F)cc23)NC(=O)[C@H](Cc2c[nH]c3ccc(F)cc23)NC(=O)CNC(=O)[C@H](CCCCN)NC(=O)CCSCc2cccc(c2)CSC[C@@H](C(N)=O)NC(=O)[C@@H]2CCCN2C(=O)[C@H](Cc2ccc(O)cc2)NC(=O)[C@H](Cc2cnc[nH]2)NC1=O ([Mpa]KG[Trp(5-F)][Trp(5-F)]AHYPC-NH2; linker 1-10 via mXylylene)
23,525,C[C@@H]1NC(=O)[C@H](CC(=O)O)NC(=O)[C@H](Cc2c[nH]c3ccc(F)cc23)NC(=O)[C@H](Cc2c[nH]c3ccc(F)cc23)NC(=O)CNC(=O)[C@H](CCCCN)NC(=O)CCSCc2cccc(c2)CSC[C@@H](C(N)=O)NC(=O)[C@@H]2CCCN2C(=O)[C@H](Cc2ccc(O)cc2)NC1=O ([Mpa]KG[Trp(5-F)][Trp(5-F)]DAYPC-NH2; linker 1-10 via mXylylene)
24,> 48000,C[C@@H]1NC(=O)[C@H](Cc2cnc[nH]2)NC(=O)[C@H](CC(=O)O)NC(=O)[C@H](Cc2c[nH]c3ccc(F)cc23)NC(=O)[C@H](Cc2c[nH]c3ccc(F)cc23)NC(=O)CNC(=O)[C@H](CCCCN)NC(=O)CCSCc2cccc(c2)CSC[C@@H](C(N)=O)NC(=O)[C@@H]2CCCN2C1=O ([Mpa]KG[Trp(5-F)][Trp(5-F)]DHAPC-NH2; linker 1-10 via mXylylene)
